# Measurements: US20090203685A1, “ANTI-PROLIFERATIVE COMPOUNDS FROM A 3-ARYL-COUMARINE OR 3-ARYL-QUINOLIN-2-ONE AND USES THEREOF” (EOS (ETHICAL ONCOLOGY SCIENCE) S.P.A., priority 2006, published 2009)
# What was measured:
# [1] = target: T1, interaction between 6×His-Bcl-xL and GST-BF8 (Homo sapiens, UniProt Q07817); test: Pull down assay, Bcl-xL/BF8 in vitro interaction; assay type: binding; details: 50 μM, 5% DMSO; Western blot
# T1 construct: made in house; host or cells: E. coli
# Procedure: FIG. 3: Inhibition of the interaction between Bcl-xL and BF8, a peptide aptamer that targets the hydrophobic groove of BCL-2 family members. […]
# C+: 6×His-Bcl-xL captured by GST-BF8, in presence of 5% DMSO. (02): 6×His-Bcl-xL captured by GST-BF8, in presence of 50 μM of compound 02 (in 5% DMSO). (01): 6×His-Bcl-xL captured by GST-BF8, in presence of 50 μM of compound 01 (in 5% DMSO).
# A peptide aptamer (dubbed BF8) has been selected against the anti-apoptotic protein Bfl1, member of the BCL-2 family. […] Two lines of evidence indicate that BF8 binds the hydrophobic groove of anti-apoptotic BCL-2-like proteins. First, the amino-acid sequence of its variable region bears similarities with the sequence of the BH3 domains of pro-apoptotic members of the BCL-2 family (such as Bak or Bax), known to bind the anti-apoptotic proteins via this hydrophobic groove. Second, BF8 no longer binds a mutated variant of Bfl-1 that bears an amino-acid substitution within the said hydrophobic groove.
# A Bcl-xL/BF8 in vitro interaction assay was developed to examine the capacity of the compounds of the invention to disrupt this interaction by competition with the peptide aptamer. 6×His-Bcl-xL and GST-BF8 recombinant fusion proteins were expressed in E. coli and purified using affinity chromatography. […]
# [2] = Viability (propidium iodide staining), PC3; assay type: cell-based; details: human, PC3 cells (prostate), 500 nM
# Procedure: (§1) Propidium iodide (PI) cannot normally cross the cell membrane; it is thus excluded by viable cells but not from dying or dead cells, having a damaged membrane, where it intercalates into double-stranded nucleic acids and fluoresces when excited at 488 nm.
# (§2) The cells are pelleted by gentle centrifugation 1200 rpm/5 min/4° C., then the supernatant is discarded and replaced by 1 mL of fresh medium. One hundred microliters of propidium iodide (40 μg/mL) are added to 400 μL of the cell suspension in a FACS tube and viability is measured by flow cytometry as the percentage of cells whose fluorescence recorded on FL-3 channel is comprised between 0 and 2.
# (§3) Viability and cell cycle profile, tested with compound (01), at 500 nM: […]
# [3] = Viability (propidium iodide staining), CEM; assay type: cell-based; details: human, CEM cells (lymphoid), 500 nM
# Procedure: as §1, §2, §3
# [4] = system: PC3; test: Cell cycle analysis, PC3; assay type: cell-based; details: 500 nM
# Procedure: (§4) The cells are pelleted by gentle centrifugation 1200 rpm/5 min/4° C., then the supernatant is discarded and the cells are fixed with 1 mL of PBS/Ethanol 70% overnight at −20° C. The tubes are then centrifuged during 5 minutes at 1200 rpm and the supernatant is removed. The pellet is then re-suspended in 450 μL of PBS before 50 μL of RNAse (1 mg/mL) and 5 μL of propidium iodide (2 mg/mL) are added. Each tube is left 30 minutes at 37° C. and immediately analysed by flow cytometry after incubation.
# (§5) A biparametric dot plot representation FL3 peak vs FL3 integer is plotted and the cells located on the diagonal are gated and analysed on a histogram representing the number of cells as a function of the FL3 peak.
# (§6) To assess the relative position of cursors defining relative proportion of cells in subG1, G1, S or G2 phase of the cell cycle, G1 and G2 peaks are to be defined first:
# (§7) The G1 peak is defined as the major peak in absence of treatment (generally X=200);
# (§8) The G2 peak is centered on the value which is twice the value of the G1 peak (generally X=400).
# (§9) Cells in subG1 phase are plotted in the part of the histogram preceding the G1 peak (generally X<200) and cells in S phase are enclosed in the area between the G1 and G2 peaks.
# (§10) On this graphic, subG1, G1, S and G2/M phases of the cell cycle can thus be defined.
# as §3
# [5] = Viability (propidium iodide staining), Jurkat; assay type: cell-based; details: human, Jurkat cells, 500 nM
# Procedure: as §1, §2, §3
# [6] = system: A375; test: Cell cycle analysis, A375; assay type: cell-based; details: 500 nM
# Procedure: as §4, §5, §6, §7, §8, §9, §10, §3
# T1 sequence (Q07817 whole entry): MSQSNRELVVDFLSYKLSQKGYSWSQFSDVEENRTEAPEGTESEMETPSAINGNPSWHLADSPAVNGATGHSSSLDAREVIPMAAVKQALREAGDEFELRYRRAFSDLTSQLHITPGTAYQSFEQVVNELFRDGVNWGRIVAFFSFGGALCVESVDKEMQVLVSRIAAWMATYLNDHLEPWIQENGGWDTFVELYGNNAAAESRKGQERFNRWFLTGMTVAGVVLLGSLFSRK
smiles,measurement,setting,value
"COc1cc(NC(=S)NC(=O)/C=C/c2ccco2)ccc1-c1cc2ccccc2oc1=O [Compound 01, (2E)-3-(2-furyl)-N-({[3-methoxy-4-(2-oxo-2H-chromen-3-yl)phenyl]amino}carbonothioyl)acrylamide]",Inhibition of the in vitro interaction between 6×His-Bcl-xL and GST-BF8,[1],inhibit
same,"viability at 48 h, 0.5 µM",[2]; 48 h,92%
same,"viability at 72 h, 0.5 µM",[2]; 72 h,90%
same,"viability at 48 h, 0.5 µM",[3]; 48 h,10%
same,"viability at 72 h, 0.5 µM",[3]; 72 h,2%
same,Cell cycle profile - 72 h,[4],G2/M accumulation
same,"viability at 48 h, 0.5 µM",[5]; 48 h,4%
same,"viability at 72 h, 0.5 µM",[5]; 72 h,1%
same,Cell cycle profile - 72 h,[6]; G2/M phase fraction,G2/M accumulation
same,Cell cycle profile - 72 h,[6]; sub-G1 fraction,Strong sub-G1
